Source: PubChem BioAssay (NCI)
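1) Cells in 96-well plates. 2) Compound, 48 h, 5 concentrations. 3) Linear interpolation between surrounding doses. 4) Unreached endpoint = highest concentration. At the TGI there is no net growth.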 Where a SMILES comes first, the peptide text is derived from it. The star is where a group is joined. Cbz = O=C(OCc1ccccc1)*

Assays:
Assay in all cases: DTP human tumour cell line panel, 48 h
CAKI-1 renal = system: CAKI-1 renal
HCT-15 colon = system: HCT-15 colon
MCF7 breast = system: MCF7 breast
MDA-MB-231 breast = system: MDA-MB-231 breast
MDA-N = system: MDA-N
OVCAR-4 ovarian = system: OVCAR-4 ovarian
SF-539 CNS = system: SF-539 CNS
SK-MEL-28 melanoma = system: SK-MEL-28 melanoma
SR leukemia = system: SR leukemia
SW-620 colon = system: SW-620 colon
U251 CNS = system: U251 CNS

SMILES | TGI (CAKI-1 renal) [µM] | TGI (HCT-15 colon) [µM] | TGI (MCF7 breast) [µM] | TGI (MDA-MB-231 breast) [µM] | TGI (MDA-N) [µM] | TGI (OVCAR-4 ovarian) [µM] | TGI (SF-539 CNS) [µM] | TGI (SK-MEL-28 melanoma) [µM] | TGI (SR leukemia) [µM] | TGI (SW-620 colon) [µM] | TGI (U251 CNS) [µM]
CCOC(=O)C12OC(CCC1=O)C(C(=O)OC)=C2C(=O)OC (stereo not given) | > 10 | > 10 | > 10 | > 10 | > 10 | > 10 | > 10 | > 10 | > 10 | > 10 | > 10
Fc1cc(-c2cc(-c3ccccc3)no2)c(Cl)cc1Cl | > 100 | > 68.4 | > 100 | 32.8 | > 68.9 | > 77.3 | > 17.2 | > 56.4 | > 41.8 | > 63.3 | > 21.7
CCOC1OC(=O)c2cc3ccc4c(c3c(-c3ccc5c(c3)OCO5)c21)OCO4 (stereo not given) | > 100 | > 100 | > 100 | > 100 | 5.2 | > 100 | 20.4 | > 100 | 5.43 | > 100 | > 100
O=C(O)C(NCc1ccccc1)C(NCc1ccccc1)C(=O)O (stereo not given) | > 100 | > 100 | > 100 | > 100 | > 100 | > 100 | > 100 | > 100 | > 100 | > 100 | > 100
CC#CCOC(=O)c1ccccc1OC(C)=O | > 100 | > 100 | > 100 | > 100 | > 100 | > 100 | > 100 | – | > 100 | > 100 | > 100
CCOC(=O)NC(Nc1ccc(S(=O)(=O)Nc2nc(C)cc(C)n2)cc1)(C(=O)OCC)C(F)(F)F (stereo not given) | > 100 | > 100 | > 100 | > 100 | > 100 | > 100 | > 100 | > 100 | 27.4 | > 100 | > 100
CN(CC(=O)O)c1ncc2c(n1)CCCC2 | > 100 | > 100 | > 100 | > 100 | > 100 | > 100 | > 100 | > 100 | > 100 | > 100 | > 100
CCOC(=O)CC[C@H](NC(=O)[C@H](N)Cc1ccc(N(CCCl)CCCl)cc1)C(=O)OCC | > 37.1 | > 55.7 | > 87.3 | > 58.8 | > 50.8 | > 45.2 | 30.8 | > 54.3 | > 100 | > 58.8 | > 59.2
CC(CO)(CO)N1C(=O)C2C3C=CC(C3)C2C1=O (stereo not given) | > 100 | > 100 | > 100 | > 100 | > 100 | > 100 | > 100 | > 100 | > 100 | > 100 | > 100
Nc1nc(N)c2c3c(cnc2n1)CC(c1ccccc1)CC3 (stereo not given) | > 100 | > 100 | 30.4 | 96.8 | > 100 | 41.9 | > 100 | > 100 | 66.1 | > 100 | > 100
O=C(Oc1ccccn1)c1cc2cc(CCl)ccc2oc1=O | 77.3 | > 100 | > 100 | 46.6 | > 100 | 55 | > 100 | > 100 | > 100 | > 100 | 34.7
CC(=O)c1[nH]c(NCc2ccccc2)c(C(=S)Nc2ccccc2)c1N | 98.2 | 39.9 | 37.2 | 34.1 | 39.1 | 79.9 | 32.1 | 52 | > 100 | > 100 | 32.7
COc1cc2c(C)cc(O)cc2c2cc(O)c(C)cc12 | 22.4 | 17.9 | 20.5 | 19.2 | 20 | 21.9 | 19.1 | – | 6.18 | 19.8 | 21.3
O=[N+]([O-])/C(C(Cl)=C(Cl)Cl)=C(/Cl)Sc1ccccc1 | 6.57 | 4.85 | 2.99 | 3.4 | 3.78 | 3.75 | 3.78 | 3.28 | 2.38 | 1.07 | 5.04
O=C1CCCC1CN1CCCC1 (stereo not given) | 0.773 | 5.89 | 8.53 | 31.3 | 26.8 | 4.32 | 36.7 | 27.7 | 1.16 | 11.3 | > 56.8
Cc1nn(-c2ccccc2)c2c1C(c1ccc(Cl)cc1)NC(=S)N2 (stereo not given) | > 100 | 37.7 | > 100 | 51.2 | 93.6 | > 100 | 37.4 | – | > 100 | 71.1 | 48.1
O=Cc1[nH]c(=O)[nH]c(=O)c1C(=O)O | > 100 | > 100 | > 100 | > 100 | > 100 | > 100 | > 100 | > 100 | > 100 | > 100 | > 100
N#Cc1c(N)nc2n[nH]c(N)c2c1-c1ccc(Cl)cc1 | 29.3 | > 72.6 | 19 | 10.4 | > 100 | > 100 | 45 | > 100 | > 100 | > 100 | > 55
COC(=O)C1=C(C(=O)NNc2ccccc2)N(c2cccnc2Cl)C(c2ccccc2)=CC1c1ccccc1 (stereo not given) | > 100 | > 100 | > 100 | > 100 | 45.6 | > 100 | > 100 | > 100 | > 100 | > 100 | > 100
CCCCCCc1cc2cc(C(=O)Nc3ccccc3)c(=N)oc2cc1O | > 100 | > 100 | > 100 | > 100 | > 34.3 | > 60.9 | > 48.6 | > 100 | > 26.3 | > 100 | > 33.6
CN(C)CCCC12CCCCC1=Nc1ccccc12 (stereo not given) | > 100 | > 100 | > 100 | > 100 | > 100 | > 100 | > 100 | > 100 | 69.2 | > 100 | > 100
COC(=O)/C=C(\C)CC(O)/C=C(\C)CCC=C(C)C (stereo not given) | > 100 | > 100 | > 100 | > 100 | > 100 | > 100 | > 100 | > 100 | 68.2 | > 100 | > 100
CC(O)C1(CNc2cc(Cl)nc(N)n2)CCC1 (stereo not given) | > 100 | > 100 | > 100 | > 100 | > 100 | > 100 | > 100 | > 100 | > 100 | > 100 | > 100
CN1CCN(C(=S)N2CCN(C)CC2)CC1 | > 100 | > 100 | > 37.3 | > 100 | > 100 | > 100 | 45.3 | > 100 | 0.983 | > 100 | > 100
O=C(O)CCC(NC(=O)OCc1ccccc1)C(=O)NC(Cc1cnc[nH]1)C(=O)O (stereo not drawn) (Cbz-Glu-His-OH; configuration not given here) | > 100 | > 100 | > 100 | > 100 | > 100 | > 100 | > 100 | > 100 | > 100 | > 100 | > 100
CC(C)(C)OC(=O)[C@H]1CCC(=S)N1Cc1ccccc1 | > 100 | > 100 | > 100 | > 100 | > 100 | > 100 | > 100 | > 100 | > 100 | > 100 | > 100
CC1OC(OC2C(O)COC(OC3C(C)OC(OC4C(OC(=O)[C@]56CCC(C)(C)C[C@@H]5C5=CCC7[C@@]8(C)C[C@H](O)[C@H](OC9OC(CO)C(O)C(O)C9O)[C@@](C)(CO)[C@@H]8CC[C@@]7(C)[C@]5(C)CC6)OCC(O)C4O)C(O)C3OC3OCC(O)(CO)C3O)C2O)C(O)C(O)C1O (stereo not given in full) | 13.8 | 38.7 | > 67.9 | 30 | 32.5 | 37.2 | 44.8 | 13.6 | 38 | 31.6 | 37.4
OC1C#CCSCC#C/C=C\1 (stereo not given) | – | > 100 | > 100 | > 100 | > 100 | > 100 | > 100 | > 100 | > 100 | 36.6 | > 100
COc1ccc(P2(=S)OC(C)(C)C(C)(C)O2)cc1 | > 100 | > 100 | > 100 | > 100 | > 100 | > 100 | > 100 | > 100 | > 100 | > 100 | > 100
O=C(O)[C@@H]1CCS(=O)(=O)N1 | > 100 | > 100 | > 100 | > 100 | > 100 | > 100 | > 100 | > 100 | > 100 | > 100 | –
